One data set has as its target human BACE1 (Homo sapiens, UniProt P56817). Description: Fluorescent kinetic assay, BACE1 inhibition (FRET peptide substrate cleavage). Particulars: 10 nM BACE1, 25 μM substrate WABC-6, 50 mM Na-Acetate pH 4.5, room temperature. The format is biochemical.

These results are taken from US7459567B2, “Substituted thienyl and furyl acylguanidines and methods of their use as beta-secretase modulators” (Wyeth, priority 2005, dated 2008).

Chain of human BACE1 (P56817 46-501): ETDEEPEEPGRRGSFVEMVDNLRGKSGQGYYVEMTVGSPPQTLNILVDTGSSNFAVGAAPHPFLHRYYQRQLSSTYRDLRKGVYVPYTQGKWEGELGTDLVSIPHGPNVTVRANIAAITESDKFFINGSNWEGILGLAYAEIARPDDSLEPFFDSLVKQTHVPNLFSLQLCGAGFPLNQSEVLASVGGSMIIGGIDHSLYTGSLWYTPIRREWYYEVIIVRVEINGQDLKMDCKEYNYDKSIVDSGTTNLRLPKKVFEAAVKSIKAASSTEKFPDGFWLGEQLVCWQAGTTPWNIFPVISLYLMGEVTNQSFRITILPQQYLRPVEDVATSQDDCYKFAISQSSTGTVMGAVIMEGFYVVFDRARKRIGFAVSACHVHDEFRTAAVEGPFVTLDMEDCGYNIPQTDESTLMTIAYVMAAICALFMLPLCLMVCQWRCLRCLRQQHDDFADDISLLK

As for `CCCOc1ccc(-c2scc(-c3ccccc3Cl)c2CC(=O)N=C(N)N)cc1` [Example 1, N″-{[4-(2-Chlorophenyl)-2-(4-propoxyphenyl)thien-3-yl]acetyl}guanidine], the melting point was 98 to 99 °C.
The compound `NC(N)=NC(=O)Cc1c(-c2ccccc2)csc1-c1ccccc1` [Example 2, N″-[(2,4-Diphenylthien-3-yl)acetyl]guanidine] had a melting point of 204 to 205.5 °C.
In turn, `NC(N)=NC(=O)Cc1c(-c2ccccc2)csc1-c1ccc(Oc2ccccc2)cc1` [Example 3, N″-{[2-(4-Phenoxyphenyl)-4-phenylthien-3-yl]acetyl}guanidine] yielded a melting point of 116 to 118 °C. This compound also came in with an IC50 against human BACE1 of 2.06 µM.
For `NC(N)=NC(=O)Cc1c(-c2ccccc2Cl)csc1-c1ccc(Oc2ccccc2)cc1` [Example 4, N″-{[4-(2-Chlorophenyl)-2-(4-phenoxyphenyl)thien-3-yl]acetyl}guanidine], in that order: 76 to 78 °C and 1.6 µM.
Regarding `CCCOc1ccc(-c2csc(-c3ccccc3Cl)c2CC(=O)N=C(N)N)cc1` [Example 5, N″-{[2-(2-Chlorophenyl)-4-(4-propoxyphenyl)thien-3-yl]acetyl}guanidine], the melting point lay within 111 to 113 °C.
For the compound `CCCOc1ccc(-c2scc(-c3ccccc3OC(F)(F)F)c2CC(=O)N=C(N)N)cc1` [Example 6, N″-({2-(4-Propoxyphenyl)-4-[2-(trifluoromethoxy)phenyl]thien-3-yl}acetyl)guanidine], the melting point is 90 to 92 °C. The compound further returned an IC50 on human BACE1 of 1.6 µM.
The compound `CCCOc1ccc(-c2scc(-c3ccccc3)c2CC(=O)NC(=N)N)cc1` [Example 7, N-{[4-Phenyl-2-(4-propoxyphenyl)thien-3-yl]acetyl}guanidine] displayed a melting point of 94 to 95 °C.
The same measure, in the same setting: next, `CCCOc1ccc(-c2csc(-c3ccccc3)c2CC(=O)N=C(N)N)cc1` [Example 8, N″-{[2-Phenyl-4-(4-propoxyphenyl)thien-3-yl]acetyl}guanidine]: 131 to 132 °C.
Same read-out and setting: the result for `CC(=O)c1ccc(Oc2ccc(-c3scc(-c4ccccc4Cl)c3CC(=O)N=C(N)N)cc2)cc1` [Example 9, N″-{[2-[4-(4-Acetylphenoxy)phenyl]-4-(2-chlorophenyl)thien-3-yl]acetyl}guanidine] reads 117 to 118 °C.
For the compound `CCC(=O)c1ccc(Oc2ccc(-c3scc(-c4ccccc4Cl)c3CC(=O)N=C(N)N)cc2)cc1` [Example 10, N″-({4-(2-Chlorophenyl)-2-[4-(4-propionylphenoxy)phenyl]thien-3-yl}acetyl)guanidine], the melting point fell in the range of 123 to 124 °C. This compound also registered an IC50 on human BACE1 of 1.73 µM.
`NC(N)=NC(=O)Cc1c(-c2ccccc2Cl)csc1-c1ccc(OCCc2cn[nH]c2)cc1` [Example 11, 2-(4-(2-Chlorophenyl)-2-{4-[2-(1H-pyrazol-4-yl)ethoxy]phenyl}-thien-3-yl)-N-(diaminomethylene)acetamide] displayed a melting point of 71 to 72 °C.
As for `CCCOc1ccc(-c2scc(-c3ccccc3Cl)c2CC(=O)NC(=N)NCCCO)cc1` [Example 12, 2-[4-(2-Chlorophenyl)-2-(4-propoxyphenyl)thien-3-yl]-N-[[(3-hydroxypropyl)amino](imino)methyl]acetamide], the melting point was 49 to 50 °C.
Same read-out and setting: the result for `CCC(CC)NC(=O)c1ccc(-c2scc(-c3ccccc3Cl)c2CC(=O)NC(=N)NCCCO)cc1` [Example 13, 4-[4-(2-Chlorophenyl)-3-(2-{[[(3-hydroxypropyl)amino](imino)-methyl]amino}-2-oxoethyl)thien-2-yl]-N-(1-ethylpropyl)benzamide] reads 109 to 110 °C; that for `N=C(NCCCO)NC(=O)Cc1c(-c2ccccc2Cl)csc1-c1ccc(C(=O)NCC(F)(F)F)cc1` [Example 14, 4-[4-(2-Chlorophenyl)-3-(2-{[[(3-hydroxypropyl)amino](imino)-methyl]amino}-2-oxoethyl)thien-2-yl]-N-(2,2,2-trifluoroethyl)benzamide], 103 to 105 °C; that for `CCCNC(=O)c1ccc(-c2scc(-c3ccccc3Cl)c2CC(=O)NC(=N)NCCCO)cc1` [Example 15, 4-[4-(2-Chlorophenyl)-3-(2-{[[(3-hydroxypropyl)amino](imino)-methyl]amino}-2-oxoethyl)thien-2-yl]-N-propylbenzamide], 116 to 118 °C.
Compound `N=C(NCCCO)NC(=O)Cc1c(-c2ccccc2Cl)csc1-c1ccc(C(=O)NCC2CC2)cc1` [Example 16, 4-[4-(2-Chlorophenyl)-3-(2-{[[(3-hydroxypropyl)amino](imino)-methyl]amino}-2-oxoethyl)thien-2-yl]-N-(cyclopropylmethyl)benzamide] returned a melting point of 100 to 101 °C.
Still for that read-out and setting: the result for `CCCCNC(=O)c1ccc(-c2scc(-c3ccccc3Cl)c2CC(=O)NC(=N)NCCCO)cc1` [Example 17, N-Butyl-4-[4-(2-chlorophenyl)-3-(2-{[[(3-hydroxypropyl)amino]-(imino)methyl]amino}-2-oxoethyl)thien-2-yl]benzamide] reads 92 to 95 °C.
Still for that read-out and setting: next, `CCCOc1ccc(-c2scc(-c3ccccc3Cl)c2CC(=O)NC(=N)NCCCO)cc1C` [Example 18, 2-[4-(2-Chlorophenyl)-2-(3-methyl-4-propoxyphenyl)thien-3-yl]-N-[[(3-hydroxypropyl)amino](imino)methyl]acetamide]: 73 to 76 °C.
`CCCOc1ccc(-c2scc(-c3ccccc3Cl)c2CC(=O)NC(=N)NCCCO)c(C)c1` [Example 19, 2-[4-(2-Chlorophenyl)-2-(2-methyl-4-propoxyphenyl)thien-3-yl]-N-[[(3-hydroxypropyl)amino](imino)methyl]acetamide] came in with a melting point of 103 to 105.5 °C.
